Measured values reported in patent US9872883B2, “Methods of producing anamorelin hydrochloride having controlled chloride content” (HELSINN HEALTHCARE SA, priority 2012, dated 2018).
≈ marks a conversion by molar mass, not a printed value. Where a name gives a salt, the structure may show the parent alone. Each block holds one compound with its values, some of them ahead of it.

How the values were obtained:
Assay type in all cases: physicochemical
[1] = Long-term stability of batches having differing chloride contents, % increase in total impurities
Experimental: The long-term stability of three separate batches of anamorelin monohydrochloride (or composition comprising anamorelin monohydrochloride) having differing chloride contents were evaluated for stability at 25° C./60% relative humidity for one, two and three years, and 40° C./75% relative humidity for one, three and six months. The results are presented below in Table 3C. % Increase in Table 3C was calculated by the following formula. % Increase=(M−I)/I×100
I: initial total impurity (%)
M: measured total impurity (%) at specific time (e.g., 3 months, 6 month and so forth)

[2] = Stability testing for anamorelin dihydrochloride relative to the monohydrochloride and free base at 40° C./75% relative humidity
Experimental: Stability testing for anamorelin dihydrochloride relative to the monohydrochloride and anamorelin free base at 40° C./75% relative humidity is reported below in Table 3D. For the anamorelin dihydrochloride preparation, anamorelin free base was dissolved in ethyl acetate and a molar excess of hydrochloric acid in ethyl acetate was added into the mixture to precipitate anamorelin dihydrochloride. The resulting anamorelin dihydrochloride was filtered and dried (chloride content approximately 12.2%). HPLC Area % in Table 3D refers to the amount of converted value of anamorelin free base in samples.

[3] = Solubility test in distilled water (HPLC); details: distilled water (initial pH 7)
Experimental: A solution of standard curve was prepared to 356 μmol/L by diluting standard substance (anamorelin free base (quantitative value: 93.90%), 86.6 mmol/L, isopropyl acetate solution) with acetonitrile. In addition, a sample solution was prepared according to the process that test compound (about 100 mg) added into distilled water (10.00 g), the solution was mixed for 10 minutes at 50° C. and then was placed overnight, obtained suspension was filtered by syringe with filter (0.2 μm) and the filtrate (48.93 mg) was diluted with acetonitrile (10 mL). A solution of standard curve and a sample solution (each 5 μL) were determined by injecting into HPLC (GULLIVER1500 HPLC system, JASCO Corporation).

[4] = Stability testing of spray dried amorphous anamorelin monohydrochloride (Batch A), purity and impurities by HPLC; design: Impurity 1 / Impurity 2 / Impurity 3 / Impurity 4 / Impurity 5 / Impurity 6 / Impurity 7: unit not given here
Experimental: The purity of the anamorelin monohydrochloride (or composition comprising anamorelin monohydrochloride) was measured using high performance liquid chromatograph (HPLC) (Hewlett-Packard HP 1100 HPLC System, Agilent Technologies Inc.). The concentrated aqueous solution of anamorelin monohydrochloride A of example 1 was concentrated by spray drying using Niro QSD-3.6 (trade mark, GEA process engineering Inc.) to afford anamorelin monohydrochloride referred to as Batch A in Tables 2A and 2B) in an amorphous state. RRT refers to the relative retention time of the impurity versus anamorelin. In addition, the purity was converted into the amount of anamorelin free base within a sample without any other organic solvent since anamorelin monohydrochloride (or composition comprising anamorelin monohydrochloride) was dissolved in the solvent to be measured by HPLC condition.

% Increase in Total Impurities From T0 ([1]; 25° C./60% RH, 1 Y): 10%
% Increase in Total Impurities From T0 ([1]; 25° C./60% RH, 2 Y): 48%
% Increase in Total Impurities From T0 ([1]; 25° C./60% RH, 3 Y): 29%
Compound: CN(C)N(C)C(=O)[C@@]1(Cc2ccccc2)CCCN(C(=O)[C@@H](Cc2c[nH]c3ccccc23)NC(=O)C(C)(C)N)C1 [5.6%]

% Increase in Total Impurities From T0 ([1]; 25° C./60% RH, 1 Y): 0%
% Increase in Total Impurities From T0 ([1]; 25° C./60% RH, 2 Y): 20%
% Increase in Total Impurities From T0 ([1]; 25° C./60% RH, 3 Y): 20%
% Increase in Total Impurities From T0 ([1]; 40° C./75% RH, 1 M): 0%
% Increase in Total Impurities From T0 ([1]; 40° C./75% RH, 3 M): 21%
% Increase in Total Impurities From T0 ([1]; 40° C./75% RH, 6 M): 17%
Compound: CN(C)N(C)C(=O)[C@@]1(Cc2ccccc2)CCCN(C(=O)[C@@H](Cc2c[nH]c3ccccc23)NC(=O)C(C)(C)N)C1 [5.9%]

% Increase in Total Impurities From T0 ([1]; 25° C./60% RH, 1 Y): 85%
% Increase in Total Impurities From T0 ([1]; 25° C./60% RH, 2 Y): 114%
% Increase in Total Impurities From T0 ([1]; 25° C./60% RH, 3 Y): 100%
% Increase in Total Impurities From T0 ([1]; 40° C./75% RH, 1 M): 107%
% Increase in Total Impurities From T0 ([1]; 40° C./75% RH, 3 M): 100%
% Increase in Total Impurities From T0 ([1]; 40° C./75% RH, 6 M): 171%
Compound: CN(C)N(C)C(=O)[C@@]1(Cc2ccccc2)CCCN(C(=O)[C@@H](Cc2c[nH]c3ccccc23)NC(=O)C(C)(C)N)C1 [6.2%]

% Increase in Total Impurities From T0 ([1]; 25° C./60% RH, 1 Y): 200%
% Increase in Total Impurities From T0 ([1]; 25° C./60% RH, 2 Y): 340%
% Increase in Total Impurities From T0 ([1]; 25° C./60% RH, 3 Y): 360%
% Increase in Total Impurities From T0 ([1]; 40° C./75% RH, 1 M): 140%
% Increase in Total Impurities From T0 ([1]; 40° C./75% RH, 3 M): 400%
% Increase in Total Impurities From T0 ([1]; 40° C./75% RH, 6 M): 500%
Compound: CN(C)N(C)C(=O)[C@@]1(Cc2ccccc2)CCCN(C(=O)[C@@H](Cc2c[nH]c3ccccc23)NC(=O)C(C)(C)N)C1 [6.3%]

HPLC Area % ([2]; 1M): 98.2%
HPLC Area % ([2]; 3M): 97.1%
HPLC Area % ([2]; I.T.): 98.9%
long-term stability (in words) ([2]; relative to the monohydrochloride): easy to be changed
Compound: CN(C)N(C)C(=O)[C@@]1(Cc2ccccc2)CCCN(C(=O)[C@@H](Cc2c[nH]c3ccccc23)NC(=O)C(C)(C)N)C1 [Anamorelin Di-HCl, reference compound]

solubility [3]: 0.04 mg/mL (≈ 73.2 µM)
HPLC Area % ([2]; 1M): 99.9%
HPLC Area % ([2]; 3M): 99.7%
HPLC Area % ([2]; I.T.): 99.7%
Compound: CN(C)N(C)C(=O)[C@@]1(Cc2ccccc2)CCCN(C(=O)[C@@H](Cc2c[nH]c3ccccc23)NC(=O)C(C)(C)N)C1 [Anamorelin Free Base, (3R)1-(2-methylalanyl-D-tryptophyl)-3-(phenylmethyl)-3-piperidinecarboxylic acid 1,2,2trimethylhydrazide]

solubility [3]: >333 mg/mL
long-term stability (in words) ([1]; three years, 25° C./60% RH): nearly unchanged
stability (in words) ([4]; six months under each set of conditions): nearly unchanged
HPLC Area % ([2]; 1M, listed as Anamorelin Mono-HCl): 99.3%
HPLC Area % ([2]; 3M, listed as Anamorelin Mono-HCl): 99.2%
HPLC Area % ([2]; I.T., listed as Anamorelin Mono-HCl): 99.9%
Compound: CN(C)N(C)C(=O)[C@@]1(Cc2ccccc2)CCCN(C(=O)[C@@H](Cc2c[nH]c3ccccc23)NC(=O)C(C)(C)N)C1 [anamorelin monohydrochloride]

Impurity 1 ([4]; 25° C./60% RH, 1 month): <0.05
Impurity 2 ([4]; 25° C./60% RH, 1 month): <0.05
Impurity 3 ([4]; 25° C./60% RH, 1 month): <0.05
Impurity 4 ([4]; 25° C./60% RH, 1 month): <0.05
Impurity 5 ([4]; 25° C./60% RH, 1 month): <0.05
Impurity 6 ([4]; 25° C./60% RH, 1 month): <0.05
Impurity 7 ([4]; 25° C./60% RH, 1 month): <0.05
anamorelin (HPLC purity) ([4]; 25° C./60% RH, 1 month): 100.0%
Impurity 1 ([4]; 25° C./60% RH, 3 months): <0.05
Impurity 2 ([4]; 25° C./60% RH, 3 months): <0.05
Impurity 3 ([4]; 25° C./60% RH, 3 months): <0.05
Impurity 4 ([4]; 25° C./60% RH, 3 months): <0.05
Impurity 5 ([4]; 25° C./60% RH, 3 months): <0.05
Impurity 6 ([4]; 25° C./60% RH, 3 months): <0.05
Impurity 7 ([4]; 25° C./60% RH, 3 months): <0.05
anamorelin (HPLC purity) ([4]; 25° C./60% RH, 3 months): 100.0%
Impurity 1 ([4]; 25° C./60% RH, 6 months): <0.05
Impurity 2 ([4]; 25° C./60% RH, 6 months): <0.05
Impurity 3 ([4]; 25° C./60% RH, 6 months): <0.05
Impurity 4 ([4]; 25° C./60% RH, 6 months): <0.05
Impurity 5 ([4]; 25° C./60% RH, 6 months): <0.05
Impurity 6 ([4]; 25° C./60% RH, 6 months): <0.05
Impurity 7 ([4]; 25° C./60% RH, 6 months): <0.05
anamorelin (HPLC purity) ([4]; 25° C./60% RH, 6 months): 100.0%
Impurity 1 ([4]; 40° C./75% RH, 1 month): <0.05
Impurity 2 ([4]; 40° C./75% RH, 1 month): <0.05
Impurity 3 ([4]; 40° C./75% RH, 1 month): <0.05
Impurity 4 ([4]; 40° C./75% RH, 1 month): <0.05
Impurity 5 ([4]; 40° C./75% RH, 1 month): <0.05
Impurity 6 ([4]; 40° C./75% RH, 1 month): <0.05
Impurity 7 ([4]; 40° C./75% RH, 1 month): <0.05
anamorelin (HPLC purity) ([4]; 40° C./75% RH, 1 month): 100.0%
Impurity 1 ([4]; 40° C./75% RH, 3 months): <0.05
Impurity 2 ([4]; 40° C./75% RH, 3 months): <0.05
Impurity 3 ([4]; 40° C./75% RH, 3 months): <0.05
Impurity 4 ([4]; 40° C./75% RH, 3 months): <0.05
Impurity 5 ([4]; 40° C./75% RH, 3 months): <0.05
Impurity 6 ([4]; 40° C./75% RH, 3 months): <0.05
Impurity 7 ([4]; 40° C./75% RH, 3 months): <0.05
anamorelin (HPLC purity) ([4]; 40° C./75% RH, 3 months): 100.0%
Impurity 1 ([4]; 40° C./75% RH, 6 months): <0.05
Impurity 2 ([4]; 40° C./75% RH, 6 months): <0.05
Impurity 3 ([4]; 40° C./75% RH, 6 months): <0.05
Impurity 4 ([4]; 40° C./75% RH, 6 months): <0.05
Impurity 5 ([4]; 40° C./75% RH, 6 months): <0.05
Impurity 6 ([4]; 40° C./75% RH, 6 months): <0.05
Impurity 7 ([4]; 40° C./75% RH, 6 months): <0.05
anamorelin (HPLC purity) ([4]; 40° C./75% RH, 6 months): 100.0%
Impurity 1 ([4]; Initial): <0.05
Impurity 2 ([4]; Initial): <0.05
Impurity 3 ([4]; Initial): <0.05
Impurity 4 ([4]; Initial): <0.05
Impurity 5 ([4]; Initial): <0.05
Impurity 6 ([4]; Initial): <0.05
Impurity 7 ([4]; Initial): <0.05
anamorelin (HPLC purity) ([4]; Initial): 100.0%
Compound: CN(C)N(C)C(=O)[C@@]1(Cc2ccccc2)CCCN(C(=O)[C@@H](Cc2c[nH]c3ccccc23)NC(=O)C(C)(C)N)C1 [anamorelin]
